Values quoted from earlier work, collected in patent US20250051276A1 (priority 2021, published 2025).

What was measured:
mice = conditions: hallucinogenic potential; cited from earlier work
5HT2A sensor [1] = conditions: cited from earlier work
5HT2A sensor [2] = conditions: cited from earlier work; remark: listed apart in the source

| Compound | head-twitch response (HTR) (mice) | activation of the 5HT2A sensor assay in agonist mode (5HT2A sensor [1]) | competition with 5-HT in the 5HT2A sensor assay in antagonist mode (5HT2A sensor [2]) |
| --- | --- | --- | --- |
| COc1ccc2c(CCN(C)C)c[nH]c2c1 [Compound 6-MeO-DMT, 6-MeO-DMT] | does not produce a HTR | do not activate the 5HT2A sensor assay in agonist mode | compete off 5-HT |
| COc1ccc2[nH]cc(CCN(C)C)c2c1 [Compound 5-MeO-DMT, 5-MeO-DMT] | produces a robust, dose-dependent head-twitch response | activate the 5HT2A sensor assay in agonist mode | – |
| CCN(CC)C(=O)[C@@H]1C=C2c3cccc4[nH]c(Br)c(c34)C[C@H]2N(C)C1 [BOL148] | – | do not activate the 5HT2A sensor assay in agonist mode | can compete with 5HT binding to 5HT2A |
